Results taken from patent US20220079915A1, “IMMUNOSUPPRESSIVE PHARMACEUTICAL COMPOSITION AND APPLICATION THEREOF” (Shanghai Archeus Biotech Co., Ltd., priority 2018, published 2022).
Read-outs that look alike come from different tables or passages of the source.

Columns and labels:
TNF-α = test: LPS-induced TNF-α secretion in THP-1 cells, ELISA of culture supernatant; type: cell-based, human; settings: for TNF-α level, % of the positive control / TNF-α, % of the positive control level: 100 ng/mL LPS; for inhibition at 10 µM: Homo sapiens, THP-1; for TNF-α treatment value, A: relative to control, 5 μM
Protocol: 1) Recoveried and expanded THP-1 cells in a T75 culture flask. The growth medium was 10 milliliters of 10% fetal bovine serun/RPMI1640 (already containing 2 mM glutamine)/1% double antibiotics in each flask. Observed the cells under an invert microscope, and, when the cells were in the logarithmic growth phase, started the following drug treatment experiments; 2) Cultured 2*10e5/mL THP-1 cells in a 96-well culture plate with 100 microliters of growth medium (10% fetal bovine serum/RPMI640/1% double antibiotics) per well, and added 100 ng/ml PMA to incubate for 24 hour; 3) Eluted the non-adherent cells once with 300 microliters of fresh growth medium of 10% fetal bovine serum/RPMI1640/1% double antibiotics; 4) Added 200 microliters of growth medium of 10% fetal bovine serum/RPMI1640/1% double antibiotics, with/without test compound, to pre-incubate the cells at 37° C. for 2 hours; 5) Then added 100 ng/mL lipopolysaccharide (LPS) and incubated at 37° C. for 4 hours: 6) Collected 50 microliters of cell culture supernatant for the detection of the levels of related cytokines by enzyme-linked immunoassay, or stored it in a refrigerator at minus 80 degrees Celsius for future detection; 1) Prepared 1× elution buffer for enzyme-linked immunoassay. Prepared it with ultrapure water: 10× elution buffer mother solution=9:1 in volume ratio for use; 2) Prepared the antibody cocktail for enzyme-linked immunoassay. Prepared it with the antibody diluent (provided by Ab221825):antibody 1:antibody 2=18:1:1 in volume ratio for use. Antibody 1 was a TNF-α capture antibody and Antibody 2 was a TNF-α detector antibody. They were all supplied by kit Ab221825; 3) Prepared a series of concentration gradient samples of TNF-α standard with ultrapure water for the plotting of reaction standard curve and determining the linear range of detection signal; 4) Added 50 microliters of cell culture supernatant/standard and 50 microliters of the above antibody cocktail to a 96-well plate used for enzymatic reaction, sealed it with a film, placed it on a horizontal shaker, and incubated at 400 rpm for 1 hour at room temperature to allow the antibody-antigen complex was fully bound and coupled at the bottom of the well plate; 5) Discarded the supernatant, eluted with 350 microliters of 1× elution buffer/well for 3 times. In the last elution, put the well plate upside down on an absorbent paper and sucked and washed it thoroughly; 6) Added 100 microliters of TMB substrate solution (supplied by Ab221825) to each well, placed them on a horizontal shaker and incubated in the dark at room temperature for 5 minutes at a speed of 400 rpm; 7) Added 100 microliters of reaction stop solution (provided by Ab221825), placed on a horizontal shaker and mix at 400 rpm for 1 minute; 8) Detected the absorbance at 450 nm with a microplate reader.

THP-1 cells = test: THP-1 cell viability assay (MTT); type: cell-based, human; settings: groups with or without the compound; FIG. 3
Protocol: 1) Recoveried and expanded THP-1 cells in a T75 culture flask. The growth medium was 10 milliliters of 10% fetal bovine serun/RPMI1640 (already containing 2 mM glutamine)/1% double antibiotics in each flask. […]

[1] = system: mouse spleen Naïve CD4+ T cells; test: Compound cytotoxicity detection, lactate dehydrogenase (LDH) release; type: cell-based; settings: 4 hours incubation; FIG. 9
Protocol: 1) Separated fresh spleens from adult C57BL/6 female mice (8-12 weeks old), and ground and filtered through a […] nylon cell strainer to obtain a single cell suspension in pre-cooled PBS; 2) Seeded primary CD4+ T cells in 96-well plate with a density of 1×10^5/90 μL. The medium was 1640 medium (serum-free); 3) Added the serially diluted compounds formulated in a volume of 10 μL to designated wells; 4) Incubated the cells for 4 hours at 37 degrees Celsius and 5% CO2; 5) Detected lactate dehydrogenase (LDH) release according to CytoTox-one Homogeneous Membrane Integrity Assay Kit instructions.

SMILES: C=C[C@@]1(C)CC(=O)C2(O)[C@@]3(C)C(O)CCC(C)(C)C3[C@H](OC(=O)CCN(C)C)[C@H](OC(C)=O)[C@@]2(C)O1.Cl (stereo partly shown) [6-[3-(dimethylamino)propionyl]forskolin hydrochloride]
- TNF-α level, % of the positive control (TNF-α; 5 μM alone, FIG. 4): 33%
- TNF-α, % of the positive control level (TNF-α; 5 μM alone, FIG. 6): 58%
- reduction in TNF-α levels (TNF-α; 5 μM alone, FIG. 6): 42%
- reduction in TNF-α level (TNF-α; 5 μM used alone, FIG. 4): 67%
- TNF-α level, % of the positive control (TNF-α; 10 μM alone, FIG. 4): 27%
- TNF-α, % of the positive control level (TNF-α; 10 μM alone, FIG. 6): 44%
- reduction in TNF-α level (inhibitory effect) (TNF-α; 10 μM used alone, FIG. 4): 73%
- inhibition at 10 µM (TNF-α; 10 μM alone, FIG. 6, read-out: reduction in TNF-α levels (inhibitory effect)): 56%
- inhibition at 10 µM (TNF-α; 10 μM, 100 ng/ml LPS 4 hours, FIG. 1, read-out: inhibition of the TNF-α level of the positive control): ~75%
- TNF-α treatment value, A (TNF-α; Table 3): 33%
- TNF-α treatment value, A (TNF-α; Table 4): 58%
- cell viability (THP-1 cells): no significant difference
- toxicity to CD4+ T cells (lactate dehydrogenase release) [1]: not significantly toxic
